Source: US12281122B1, “PI3K inhibitors” (Cogent Biosciences, Inc., priority 2023, dated 2025)

How the values were obtained:
[1] = target: PI3Kα (Homo sapiens, UniProt P42336); assay: PI3Kα enzyme assay (Transcreener ADP2 TR-FRET Red Assay); assay type: biochemical; conditions: purified recombinant full-length protein; 2 hours pre-incubation with compound; read-out: PI3Kα WT IC50
How it was run: (§1)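 IC50 taken at 50 POC from a four-parameter logistic fit of TR-FRET (665/615 nm) ADP signal. Reactions used full-length recombinant enzyme, compound pre-incubation for 2 h, then 60 min with ATP and PI(4,5)P2 diC8 substrate at room temperature, pH 7.5 HEPES buffer with 25 mM MgCl2; compounds tested from 50,000 to 0.85 nM.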

[2] = target: PI3Kα H1047R (Homo sapiens, UniProt P42336, H1047R); assay: PI3Kα H1047R enzyme assay (Transcreener ADP2 TR-FRET Red Assay); assay type: biochemical; conditions: purified recombinant full-length protein; 2 hours pre-incubation with compound
Chain of PI3Kα H1047R (P42336 whole entry H1047R): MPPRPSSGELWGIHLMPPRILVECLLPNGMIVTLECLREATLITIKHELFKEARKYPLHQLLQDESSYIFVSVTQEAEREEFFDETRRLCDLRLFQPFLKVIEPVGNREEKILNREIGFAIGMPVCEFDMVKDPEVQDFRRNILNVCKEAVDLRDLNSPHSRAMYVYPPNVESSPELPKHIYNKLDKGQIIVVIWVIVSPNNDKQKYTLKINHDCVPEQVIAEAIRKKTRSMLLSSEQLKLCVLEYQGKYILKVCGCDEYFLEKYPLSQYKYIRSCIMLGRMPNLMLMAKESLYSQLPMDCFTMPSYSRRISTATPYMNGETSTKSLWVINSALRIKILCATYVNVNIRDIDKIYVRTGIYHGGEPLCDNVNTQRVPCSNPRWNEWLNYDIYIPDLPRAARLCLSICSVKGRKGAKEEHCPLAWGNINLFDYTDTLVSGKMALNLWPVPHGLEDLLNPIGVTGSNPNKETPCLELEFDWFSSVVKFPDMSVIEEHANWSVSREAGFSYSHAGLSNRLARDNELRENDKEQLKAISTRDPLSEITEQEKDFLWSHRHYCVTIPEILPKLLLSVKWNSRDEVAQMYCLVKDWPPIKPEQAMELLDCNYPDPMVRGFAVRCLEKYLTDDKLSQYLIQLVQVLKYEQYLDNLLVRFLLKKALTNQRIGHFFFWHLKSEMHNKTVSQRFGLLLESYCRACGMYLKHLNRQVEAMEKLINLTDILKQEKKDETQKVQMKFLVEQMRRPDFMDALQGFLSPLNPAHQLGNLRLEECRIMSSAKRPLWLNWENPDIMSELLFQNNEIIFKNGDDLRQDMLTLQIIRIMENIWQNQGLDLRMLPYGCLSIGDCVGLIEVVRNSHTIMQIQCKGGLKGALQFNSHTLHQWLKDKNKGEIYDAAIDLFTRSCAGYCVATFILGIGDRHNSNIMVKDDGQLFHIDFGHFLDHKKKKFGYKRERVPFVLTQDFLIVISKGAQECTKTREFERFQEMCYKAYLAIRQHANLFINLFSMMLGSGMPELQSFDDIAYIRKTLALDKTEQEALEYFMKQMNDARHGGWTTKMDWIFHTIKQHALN
Chain of PI3Kα H1047R (P27986 2-724 partner): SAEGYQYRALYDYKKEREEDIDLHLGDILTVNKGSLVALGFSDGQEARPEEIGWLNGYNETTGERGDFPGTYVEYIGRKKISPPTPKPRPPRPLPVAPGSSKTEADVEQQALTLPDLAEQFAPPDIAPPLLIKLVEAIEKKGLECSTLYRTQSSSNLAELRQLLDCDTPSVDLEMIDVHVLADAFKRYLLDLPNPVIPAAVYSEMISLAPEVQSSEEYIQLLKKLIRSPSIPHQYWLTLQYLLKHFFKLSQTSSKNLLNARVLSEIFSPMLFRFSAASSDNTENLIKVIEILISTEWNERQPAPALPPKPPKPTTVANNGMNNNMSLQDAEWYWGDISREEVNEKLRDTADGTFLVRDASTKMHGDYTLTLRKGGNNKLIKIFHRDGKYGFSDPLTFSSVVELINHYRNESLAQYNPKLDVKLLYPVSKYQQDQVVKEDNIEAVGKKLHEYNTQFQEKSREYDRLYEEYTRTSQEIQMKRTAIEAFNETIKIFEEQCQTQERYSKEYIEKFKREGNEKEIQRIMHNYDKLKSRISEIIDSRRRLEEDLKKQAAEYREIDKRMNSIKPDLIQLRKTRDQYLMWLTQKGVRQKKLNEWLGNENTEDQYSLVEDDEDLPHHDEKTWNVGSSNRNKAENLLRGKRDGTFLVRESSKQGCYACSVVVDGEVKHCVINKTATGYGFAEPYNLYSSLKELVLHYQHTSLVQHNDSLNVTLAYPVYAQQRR
How it was run: as §1

[3] = test system: T47D (PI3Kα-H1047R) cell line; assay: HTRF phospho-AKT(S473) cell assay in T47D cells; assay type: cell-based, human; conditions: Homo sapiens; T47D (PI3Kα-H1047R) cells, HTRF phospho-AKT(S473), 2 hours compound incubation
How it was run: (§2)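 HTRF read-out of phospho-AKT(S473) in lysates gave IC50 values after 2 h compound exposure at 37° C. Dose series was 12 points at 1:3, topping at 5 μM for T47D and 10 μM for SKBR3. Only SKBR3 received 70 ng/ml PDGF-BB during the last 15 minutes.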

[4] = test system: SKBR3 (PI3Kα-Wild Type) cell line; assay: HTRF phospho-AKT(S473) cell assay in SKBR3 cells; assay type: cell-based, human; conditions: Homo sapiens, SK-BR-3; SKBR3 (PI3Kα-Wild Type) cells, HTRF phospho-AKT(S473), 2 hours compound incubation, PDGF-BB stimulated
How it was run: as §2

Chain of PI3Kα (P42336 whole entry): as the sequence (P42336 whole entry H1047R) above, with R1047H counted along it
Chain of PI3Kα (P27986 2-724 partner): as the sequence (P27986 2-724 partner) above

IC50 [1] | IC50 [2] | IC50 [3] | IC50 [4] | Structure (SMILES)
≥ 1000 nM | ≥ 1000 nM | 1000 to 5000 nM | ≥ 5000 nM | Cc1cc([C@@H](C)Nc2ccc[nH]c2=O)c2nc(N3Cc4ccc(F)cc4C3)n(C)c(=O)c2c1 [Compound 94, (R)-2-(5-fluoroisoindolin-2-yl)-3,6-dimethyl-8-(1-((2-oxo-1,2-dihydropyridin-3-yl)amino)ethyl)quinazolin-4(3H)-one]
≥ 1000 nM | ≥ 1000 nM | 1000 to 5000 nM | ≥ 5000 nM | COc1nc(Cl)ccc1N[C@H](C)c1cc(C)cc2c(=O)n(C)c(N3Cc4ccc(F)cc4C3)nc12 [Compound 96, (R)-8-(1-((6-chloro-2-methoxypyridin-3-yl)amino)ethyl)-2-(5-fluoroisoindolin-2-yl)-3,6-dimethylquinazolin-4(3H)-one]
≥ 1000 nM | ≥ 1000 nM | 1000 to 5000 nM | ≥ 5000 nM | Cc1ccc(N[C@H](C)c2cccc3c(=O)n(C)c(N4Cc5ccc(F)cc5C4)nc23)c(C(=O)NS(C)(=O)=O)n1 [Compound 2, (R)-3-((1-(2-(5-fluoroisoindolin-2-yl)-3-methyl-4-oxo-3,4-dihydroquinazolin-8-yl)ethyl)amino)-6-methyl-N-(methylsulfonyl) picolinamide]
≥ 1000 nM | ≥ 1000 nM | 1000 to 5000 nM | ≥ 5000 nM | Cc1cc([C@@H](C)Nc2cn(C)nc2C(N)=O)c2nc(N3Cc4ccc(F)cc4C3)n(C)c(=O)c2c1 (single isomer, unassigned) [Compound 108]
≥ 1000 nM | 500 to 1000 nM | 250 to 500 nM | 1000 to 5000 nM | Cc1cc([C@@H](C)Nc2ccc(Cl)nc2C(=O)NS(C)(=O)=O)c2nc(N(C)C34CC(C3)C4)n(C)c(=O)c2c1 [Compound 13, (R)-3-((1-(2-(bicyclo[1.1.1]pentan-1-yl(methyl)amino)-3,6-dimethyl-4-oxo-3,4-dihydroquinazolin-8-yl)ethyl)amino)-6-chloro-N-(methylsulfonyl) picolinamide]
≥ 1000 nM | ≥ 1000 nM | < 250 nM | ≥ 5000 nM | Cc1cc([C@@H](C)Nc2ccc(Cl)[nH]c2=O)c2nc(N3Cc4ccc(F)cc4C3)n(C)c(=O)c2c1 [Compound 93, (R)-8-(1-((6-chloro-2-oxo-1,2-dihydropyridin-3-yl)amino)ethyl)-2-(5-fluoroisoindolin-2-yl)-3,6-dimethylquinazolin-4(3H)-one]
500 to 1000 nM | < 100 nM | < 250 nM | 1000 to 5000 nM | Cc1cc([C@@H](C)Nc2ccc(Cl)nc2C(=O)NS(C)(=O)=O)c2nc(N3Cc4cnn(CC5CC5)c4C3)n(C)c(=O)c2c1 [Compound 47, (R)-6-chloro-3-((1-(2-(1-(cyclopropylmethyl)-4,6-dihydropyrrolo[3,4-c]pyrazol-5(1H)-yl)-3,6-dimethyl-4-oxo-3,4-dihydroquinazolin-8-yl)ethyl)amino)-N-(methylsulfonyl) picolinamide]
≥ 1000 nM | ≥ 1000 nM | 500 to 1000 nM | 1000 to 5000 nM | Cc1cc([C@@H](C)Nc2ccc(Cl)nc2C(=O)NS(C)(=O)=O)c2nc(-c3cccc(F)c3F)n(C)c(=O)c2c1 [Compound 82, (R)-6-chloro-3-((1-(2-(2,3-difluorophenyl)-3,6-dimethyl-4-oxo-3,4-dihydroquinazolin-8-yl)ethyl)amino)-N-(methylsulfonyl)picolinamide]
≥ 1000 nM | ≥ 1000 nM | 1000 to 5000 nM | ≥ 5000 nM | C[C@@H](Nc1ccc(Cl)nc1C(=O)NS(C)(=O)=O)c1cc(F)cc2c(=O)n(C)c(-c3cccc(F)c3F)nc12 [Compound 87, (R)-6-chloro-3-((1-(2-(2,3-difluorophenyl)-6-fluoro-3-methyl-4-oxo-3,4-dihydroquinazolin-8-yl)ethyl)amino)-N-(methylsulfonyl) picolinamide]
